From patent US20260240876A1, “TREATMENT OF SLEEP APNEA WITH CBD” (Harmony Biosciences Management, Inc., priority 2021, published 2026)

System: child and adolescent patients with DEEs
Assay: BELIEVE: Sleep Disturbance Scale for Children (SDSC)
Format: in vivo, human
Conditions: Week 26, negative = improvement, vs revised Baseline mean of completers
Procedure: This was a sequential, multi-stage, open-label, multi-national, multiple-center, multiple-dose study to assess the long-term safety, tolerability, and efficacy of ZYN002 (transdermal CBD gel) in child and adolescent epilepsy patients from 3 to 18 years of age having seizures associated with developmental and epileptic encephalopathies (DEE) according to the International League Against Epilepsy (ILEA) classification (Scheffer et al. 2017). The study was conducted to evaluate efficacy of ZYN002 in DEE patients with ASD. The objective of the study also included evaluating the effects of ZYN002 transdermal CBD gel on QoL, sleep, and caregiver qualitative assessment in child and adolescent patients with DEEs.
• Change from baseline to the end of Period A in the SDSC

Structure (SMILES): C=C(C)C1CCC(C)=CC1c1c(O)cc(CCCCC)cc1O (stereo not shown) [CBD, 2-[3-methyl-6-(1-methylethenyl)-2-cyclohexen-1-yl]-5-pentyl-1,3-benzenediol]
- SDSC Sleep Breathing Disorders (SBD), Change from Baseline (All Patients (DEE)): no significant change
- SDSC Sleep Breathing Disorders (SBD), Change from Baseline (DEE Patients >70 Total Score): no significant change
- SDSC Sleep Breathing Disorders (SBD), Change from Baseline (DEE-ASD Patients >70 Total Score): −6.7
- SDSC Sleep Breathing Disorders (SBD), Change from Baseline (DEE-ASD Patients): −3.9
